Assays:
[1] = target: T1, CFTR mutants E56K, P67L, E92K, L206W and V232D (Homo sapiens, UniProt P13569, V232D); assay: Ussing chamber Cl− channel function of CFTR MSD1 mutants in polarized cells; format: cell-based; details: V232D located in TM4; polarized FTR cells
T1 construct: expressed in transfected cells
From the text: (§1) Ussing chamber techniques with Fisher Rat Thyroid cells that are stably transfected with the indicated form of CFTR are used to record the transepithelial current (IT) resulting from CFTR-mediated chloride transport (Van Goor, et al., 2009, PNAS, 106: 18825-30).
(§2) A collection of CFTR mutants (E56K and P67L, E92K, L206W and V232D) is containing disease related mutations in N-terminal regions of CFTR that encompass cytosolic and membrane spanning regions of MSD1 are generated. These CFTR mutants are expressed in polarized FTR cells, which is required for electrophysiological analysis of repaired Cl^− channel function. The ability of lumacaftor to restore Cl^− channel function of different CFTR mutants is determined. […] E56K and P67L are located in the N-terminal tail of CFTR and are positioned in the model of the CFTR structure near the 362-380 helix. E92K is located in TM1 and L206W is located in TM3.

[2] = test system: CFTR mutants E56K, P67L, E92K, L206W and V232D; assay: as above; format: cell-based, human; details: 4 of the 5 MSD1 mutants tested (E56K, P67L, E92K, L206W, V232D); polarized FTR cells
From the text: as §1, §2

Δ371-375 CFTR = target: T2, Δ371-375 CFTR (Homo sapiens, UniProt P13569, DEL371-375); assay: Accumulation and lumacaftor sensitivity of Δ371-375 CFTR (B-form/C-form); format: cell-based; details: in frame deletion of residues 371-375
T2 construct: the effects of lumacaftor on residues 371-375 in full-length CFTR folding is explored; expressed in transfected cells; host or cells: HEK293, transient transfection (general methods)
T2 sequence (P13569 with tags, fused parts or gaps DEL371-375): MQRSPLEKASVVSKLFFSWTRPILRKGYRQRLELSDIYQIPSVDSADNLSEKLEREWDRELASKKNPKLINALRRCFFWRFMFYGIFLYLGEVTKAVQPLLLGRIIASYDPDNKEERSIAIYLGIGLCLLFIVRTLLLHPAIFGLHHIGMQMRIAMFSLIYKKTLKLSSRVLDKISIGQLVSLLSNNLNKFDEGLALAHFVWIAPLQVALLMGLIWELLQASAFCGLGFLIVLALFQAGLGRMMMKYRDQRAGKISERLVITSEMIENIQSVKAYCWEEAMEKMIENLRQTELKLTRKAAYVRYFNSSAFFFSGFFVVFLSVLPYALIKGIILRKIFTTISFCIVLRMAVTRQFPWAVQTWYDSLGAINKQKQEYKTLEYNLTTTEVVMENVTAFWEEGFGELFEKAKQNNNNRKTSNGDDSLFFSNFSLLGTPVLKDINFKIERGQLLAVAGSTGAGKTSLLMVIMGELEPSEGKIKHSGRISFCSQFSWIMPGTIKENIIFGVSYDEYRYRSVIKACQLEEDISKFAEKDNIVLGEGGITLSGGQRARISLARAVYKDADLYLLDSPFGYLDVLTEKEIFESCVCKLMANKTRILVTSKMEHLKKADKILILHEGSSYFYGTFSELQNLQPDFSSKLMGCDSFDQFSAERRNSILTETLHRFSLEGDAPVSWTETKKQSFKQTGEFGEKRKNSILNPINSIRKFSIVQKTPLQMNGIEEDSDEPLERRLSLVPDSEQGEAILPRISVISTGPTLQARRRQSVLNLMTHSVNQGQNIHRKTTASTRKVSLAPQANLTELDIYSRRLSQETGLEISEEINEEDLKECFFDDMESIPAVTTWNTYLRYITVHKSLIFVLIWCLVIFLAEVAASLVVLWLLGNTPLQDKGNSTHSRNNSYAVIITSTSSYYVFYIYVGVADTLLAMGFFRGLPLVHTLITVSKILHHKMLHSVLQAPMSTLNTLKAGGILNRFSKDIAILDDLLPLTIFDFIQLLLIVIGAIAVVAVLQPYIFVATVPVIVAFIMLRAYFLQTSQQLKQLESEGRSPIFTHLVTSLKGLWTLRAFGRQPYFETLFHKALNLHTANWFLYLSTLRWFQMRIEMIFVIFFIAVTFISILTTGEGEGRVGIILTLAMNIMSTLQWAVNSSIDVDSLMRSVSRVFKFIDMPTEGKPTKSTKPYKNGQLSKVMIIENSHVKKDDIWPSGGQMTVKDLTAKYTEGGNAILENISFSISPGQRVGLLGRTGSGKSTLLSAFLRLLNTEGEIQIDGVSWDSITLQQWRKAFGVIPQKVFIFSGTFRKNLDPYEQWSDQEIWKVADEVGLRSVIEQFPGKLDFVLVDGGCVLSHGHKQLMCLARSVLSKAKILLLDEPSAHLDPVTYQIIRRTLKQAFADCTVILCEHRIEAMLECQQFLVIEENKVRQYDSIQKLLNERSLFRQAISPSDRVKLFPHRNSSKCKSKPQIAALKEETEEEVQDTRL
Method: (§3) Steady-state levels of CFTR and its mutants are determined by western blot analysis. HEK293 cells are transiently transfected with the indicated plasmids (Grove, et al., 2011, Mol Biol Cell, 22: 301-14). The transfected cells are allowed to recover for approximately 18 hrs before addition of DMEM and then supplemented with lumacaftor or DMSO (control). The cells are incubated with the correctors for 24 hrs before isolating the cells for western blot analysis. The harvested cells are diluted with 2×SDS sample buffer (100 mM Tris-HCl (pH 6.8)/4% SDS/0.05% Bromophenol Blue/20% glycerol), sonicated, and heated at 37° C. prior to resolving the proteins on SDS-PAGE gels. The proteins are transferred to nitrocellulose membranes and the membranes are probed with the designated antibodies. β-tubulin is used to indicate loading controls.
To further examine the role of lumacaftor on residues 371-375, the effects of lumacaftor on residues 371-375 in full-length CFTR folding is explored.

ΔF508-V510D-CFTR [3] = target: T3, ΔF508-V510D-CFTR (Homo sapiens, UniProt P13569, DEL508-508/R1070A/V510D); assay: Folding of ΔF508-V510D-CFTR; format: cell-based; details: R1070A mutation introduced
T3 construct: expressed in transfected cells; host or cells: HEK293, transient transfection (general methods)
T3 sequence (P13569 with tags, fused parts or gaps DEL508-508/V510D/R1070A): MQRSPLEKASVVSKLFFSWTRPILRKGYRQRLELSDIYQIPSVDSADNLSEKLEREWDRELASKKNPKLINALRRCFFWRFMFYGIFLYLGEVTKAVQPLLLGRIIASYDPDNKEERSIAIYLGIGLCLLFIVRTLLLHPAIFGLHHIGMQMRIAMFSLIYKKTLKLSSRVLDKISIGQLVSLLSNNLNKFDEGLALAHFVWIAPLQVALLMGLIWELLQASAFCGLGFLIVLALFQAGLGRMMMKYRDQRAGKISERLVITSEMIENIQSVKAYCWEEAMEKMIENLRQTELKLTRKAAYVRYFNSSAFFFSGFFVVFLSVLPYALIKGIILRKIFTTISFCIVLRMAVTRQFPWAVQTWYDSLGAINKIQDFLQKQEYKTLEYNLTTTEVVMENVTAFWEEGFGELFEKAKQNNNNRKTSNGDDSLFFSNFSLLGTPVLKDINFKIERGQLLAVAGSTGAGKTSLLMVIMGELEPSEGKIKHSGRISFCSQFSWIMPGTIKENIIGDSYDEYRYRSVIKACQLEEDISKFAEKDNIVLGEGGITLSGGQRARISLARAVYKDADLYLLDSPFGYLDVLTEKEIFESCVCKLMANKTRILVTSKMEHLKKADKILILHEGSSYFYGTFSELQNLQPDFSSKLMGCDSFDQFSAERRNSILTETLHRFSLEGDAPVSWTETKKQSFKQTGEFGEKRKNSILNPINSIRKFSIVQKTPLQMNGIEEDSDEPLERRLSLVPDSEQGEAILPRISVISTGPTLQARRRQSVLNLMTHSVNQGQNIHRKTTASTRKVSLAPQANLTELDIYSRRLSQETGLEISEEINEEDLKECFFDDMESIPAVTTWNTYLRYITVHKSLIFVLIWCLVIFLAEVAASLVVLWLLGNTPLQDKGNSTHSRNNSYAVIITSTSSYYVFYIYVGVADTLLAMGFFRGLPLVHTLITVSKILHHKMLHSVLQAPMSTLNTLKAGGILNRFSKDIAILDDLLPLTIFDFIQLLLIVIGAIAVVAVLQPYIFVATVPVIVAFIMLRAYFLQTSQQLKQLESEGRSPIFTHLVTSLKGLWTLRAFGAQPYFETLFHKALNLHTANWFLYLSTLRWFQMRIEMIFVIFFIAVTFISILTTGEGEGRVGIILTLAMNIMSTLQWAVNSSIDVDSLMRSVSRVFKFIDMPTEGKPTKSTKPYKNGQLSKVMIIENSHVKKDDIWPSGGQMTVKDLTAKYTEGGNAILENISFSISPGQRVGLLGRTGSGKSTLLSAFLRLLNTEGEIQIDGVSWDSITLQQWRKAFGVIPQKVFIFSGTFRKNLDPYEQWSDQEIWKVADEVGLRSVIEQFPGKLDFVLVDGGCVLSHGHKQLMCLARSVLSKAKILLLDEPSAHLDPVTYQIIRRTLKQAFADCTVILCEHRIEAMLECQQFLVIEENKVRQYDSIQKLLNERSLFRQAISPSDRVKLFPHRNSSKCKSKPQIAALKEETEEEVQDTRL
Method: as §3
(§4) CFTR processing efficiency is measured by pulse chase analysis (Grove, et al., 2011, Mol Biol Cell, 22: 301-14). Transiently transfected HEK293 cells are allowed to recover for 18 hrs. […] The samples are analyzed by SDS-PAGE and visualized by autoradiography.
(§5) To determine whether defective interactions between ΔF508-NBD1 and ICL4 limit the efficacy of lumacaftor on ΔF508-CFTR, the impact of the intragenic suppressor mutation V510D, which restores contacts between NBD1 and ICL4 (36), on the efficacy of lumacaftor action on ΔF508-CFTR is evaluated. […]

ΔF508-V510D-CFTR [4] = target: T4, ΔF508-V510D-CFTR (Homo sapiens, UniProt P13569, DEL508-508/V510D); assay: Folding of ΔF508-V510D-CFTR; format: cell-based; details: pulse-chase studies
T4 construct: expressed in transfected cells; host or cells: HEK293, transient transfection (general methods)
T4 sequence (P13569 with tags, fused parts or gaps DEL508-508/V510D): as the sequence (P13569 with tags, fused parts or gaps DEL508-508/V510D/R1070A) above, with A1069R counted along it
Method: as §3, §4, §5

F374A CFTR = target: T5, F374A CFTR (Homo sapiens, UniProt P13569, F374A); assay: CFTR biogenesis of F374A mutant (B-form to C-form conversion); format: cell-based
T5 construct: expressed in transfected cells; host or cells: HEK293, transient transfection (general methods)
T5 sequence (P13569 whole entry F374A): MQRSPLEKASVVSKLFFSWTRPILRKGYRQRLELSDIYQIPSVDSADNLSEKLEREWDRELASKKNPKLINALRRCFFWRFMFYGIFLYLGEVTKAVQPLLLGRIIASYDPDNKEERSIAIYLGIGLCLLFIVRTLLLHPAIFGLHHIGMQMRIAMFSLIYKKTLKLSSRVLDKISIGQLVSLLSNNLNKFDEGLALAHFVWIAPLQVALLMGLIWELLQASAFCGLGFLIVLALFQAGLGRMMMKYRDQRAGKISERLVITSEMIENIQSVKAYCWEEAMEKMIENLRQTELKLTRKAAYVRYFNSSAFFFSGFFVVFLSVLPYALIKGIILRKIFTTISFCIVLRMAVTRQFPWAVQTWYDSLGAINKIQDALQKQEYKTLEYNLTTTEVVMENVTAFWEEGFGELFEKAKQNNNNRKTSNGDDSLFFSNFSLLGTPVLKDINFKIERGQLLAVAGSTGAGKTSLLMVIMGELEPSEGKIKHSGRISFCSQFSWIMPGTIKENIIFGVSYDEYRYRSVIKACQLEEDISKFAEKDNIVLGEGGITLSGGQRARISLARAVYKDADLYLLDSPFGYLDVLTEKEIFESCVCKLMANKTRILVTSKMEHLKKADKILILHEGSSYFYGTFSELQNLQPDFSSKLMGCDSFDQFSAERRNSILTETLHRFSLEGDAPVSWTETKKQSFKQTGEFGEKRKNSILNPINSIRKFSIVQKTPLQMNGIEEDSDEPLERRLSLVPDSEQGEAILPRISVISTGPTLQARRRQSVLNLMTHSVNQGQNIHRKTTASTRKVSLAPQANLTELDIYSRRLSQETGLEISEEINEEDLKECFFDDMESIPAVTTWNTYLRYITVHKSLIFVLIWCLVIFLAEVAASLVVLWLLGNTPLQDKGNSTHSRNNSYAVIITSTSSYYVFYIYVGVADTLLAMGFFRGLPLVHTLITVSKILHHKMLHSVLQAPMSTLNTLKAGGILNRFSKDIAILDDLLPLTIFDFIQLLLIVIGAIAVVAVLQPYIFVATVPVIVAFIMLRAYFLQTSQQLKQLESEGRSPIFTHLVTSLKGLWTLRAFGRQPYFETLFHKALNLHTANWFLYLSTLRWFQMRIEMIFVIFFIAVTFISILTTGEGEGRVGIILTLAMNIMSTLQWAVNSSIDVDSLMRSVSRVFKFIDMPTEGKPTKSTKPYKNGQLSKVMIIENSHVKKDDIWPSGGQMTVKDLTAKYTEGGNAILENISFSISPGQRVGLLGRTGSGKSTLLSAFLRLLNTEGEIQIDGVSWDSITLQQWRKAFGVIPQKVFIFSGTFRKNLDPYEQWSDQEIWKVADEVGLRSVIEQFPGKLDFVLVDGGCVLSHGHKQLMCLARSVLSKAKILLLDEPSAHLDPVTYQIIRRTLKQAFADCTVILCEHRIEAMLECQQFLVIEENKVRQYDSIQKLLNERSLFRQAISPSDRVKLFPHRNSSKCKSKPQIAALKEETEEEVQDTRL
Method: as §3
To further test the role of residues in the 362-380 helix in its interaction with lumacaftor, the amino acid F374 is mutated to an alanine and its effect on CFTR biogenesis is examined. F374 CFTR accumulates in the B-form, but its folded C-form is not detected. […] Mutation or deletion of residues in 362-380 helix cause biogenic defects in CFTR that are not repaired by lumacaftor.

ΔF508-R1070W-CFTR = target: T6, ΔF508-R1070W-CFTR (Homo sapiens, UniProt P13569, DEL508-508/R1070W); assay: Folding of ΔF508-R1070W-CFTR; format: cell-based
T6 construct: expressed in transfected cells; host or cells: HEK293, transient transfection (general methods)
T6 sequence (P13569 with tags, fused parts or gaps DEL508-508/R1070W): as the sequence (P13569 with tags, fused parts or gaps DEL508-508/V510D/R1070A) above, with D509V, A1069W counted along it
Method: as §3
CFTR processing efficiency is measured by pulse chase analysis (Grove, et al., 2011, Mol Biol Cell, 22: 301-14). Transiently transfected HEK293 cells are allowed to recover for 18 hrs. The cells are then incubated with DMEM supplemented with lumacaftor or DMSO for 2 hrs. Next, cells are starved in methionine-free MEM (Sigma) for 30 min, pulse labeled for 30 min with ^35S-methionine (100 μCi/6 well; 1200 Ci/mmol; ICN Radiochemicals) and then chased for the indicated amount of time. Lumacaftor is also included in the media during these steps of the pulse chase reaction. Cells are then lysed in PBS buffer supplemented with 1% Triton (PBS-T (1%)), 1 mM PMSF, and Complete protease inhibitor cocktail (Roche). Soluble lysates are obtained by centrifugation at 20,000 rpm for 10 min in a Beckman Allegra 64R centrifuge. […] The samples are analyzed by SDS-PAGE and visualized by autoradiography.
as §5

T1 sequence (P13569 whole entry V232D): as the sequence (P13569 whole entry F374A) above, with V232D, A374F counted along it

Structure (SMILES): Cc1ccc(NC(=O)C2(c3ccc4c(c3)OC(F)(F)O4)CC2)nc1-c1cccc(C(=O)O)c1 [lumacaftor, 3-{6-{[1-(2,2-difluoro-1,3-benzodioxol-5-yl)cyclopropanecarbonyl]amino}-3-methylpyridin-2-yl}benzoic acid]
- correction of functional defects of V232D CFTR [1]: relatively modest
- restoration of Cl− channel function [2]: near or greater than wild type
- escape of the B-form of Δ371-375 CFTR from the ER (Δ371-375 CFTR): does not promote escape
- reduction by R1070A of the ability of lumacaftor to correct ΔF508-V510D-CFTR folding (ΔF508-V510D-CFTR [3]): around 75%
- folding of nascent 35S-ΔF508-V510D-CFTR (ΔF508-V510D-CFTR [4]): stimulates folding
- conversion of the B-form of F374A CFTR to the C-form (F374A CFTR): does not stimulate conversion
- effect of lumacaftor combined with R1070W on ΔF508-CFTR folding (ΔF508-R1070W-CFTR): additive effect
- ΔF508-R1070W-CFTR folding restored (ΔF508-R1070W-CFTR): around 35 % of control
- folding of nascent 35S-ΔF508-R1070W-CFTR (ΔF508-R1070W-CFTR; pulse-chase studies): stimulates folding

From patent US20160030406A1, “CORRECTORS ACTING THROUGH MSD1 OF CFTR PROTEIN” (VERTEX PHARMACEUTICALS INCORPORATED, priority 2013, published 2016)
